Counter-ions that a name gives are not always drawn.
Each compound was assayed against (Homo sapiens, UniProt P07996) (assay: Secondary Assay, inhibitory activity of thiadiazole and oxadiazole analogs as TGF-beta inhibitors). Conditions: Table I.
Assay type: biochemical
Method: A summary of the inhibitory activity of representative thiadiazole analogs (Tables i and ii) and oxadiazole analogs (Table ii) is shown below.
Target sequence in this assay (P07996 whole entry): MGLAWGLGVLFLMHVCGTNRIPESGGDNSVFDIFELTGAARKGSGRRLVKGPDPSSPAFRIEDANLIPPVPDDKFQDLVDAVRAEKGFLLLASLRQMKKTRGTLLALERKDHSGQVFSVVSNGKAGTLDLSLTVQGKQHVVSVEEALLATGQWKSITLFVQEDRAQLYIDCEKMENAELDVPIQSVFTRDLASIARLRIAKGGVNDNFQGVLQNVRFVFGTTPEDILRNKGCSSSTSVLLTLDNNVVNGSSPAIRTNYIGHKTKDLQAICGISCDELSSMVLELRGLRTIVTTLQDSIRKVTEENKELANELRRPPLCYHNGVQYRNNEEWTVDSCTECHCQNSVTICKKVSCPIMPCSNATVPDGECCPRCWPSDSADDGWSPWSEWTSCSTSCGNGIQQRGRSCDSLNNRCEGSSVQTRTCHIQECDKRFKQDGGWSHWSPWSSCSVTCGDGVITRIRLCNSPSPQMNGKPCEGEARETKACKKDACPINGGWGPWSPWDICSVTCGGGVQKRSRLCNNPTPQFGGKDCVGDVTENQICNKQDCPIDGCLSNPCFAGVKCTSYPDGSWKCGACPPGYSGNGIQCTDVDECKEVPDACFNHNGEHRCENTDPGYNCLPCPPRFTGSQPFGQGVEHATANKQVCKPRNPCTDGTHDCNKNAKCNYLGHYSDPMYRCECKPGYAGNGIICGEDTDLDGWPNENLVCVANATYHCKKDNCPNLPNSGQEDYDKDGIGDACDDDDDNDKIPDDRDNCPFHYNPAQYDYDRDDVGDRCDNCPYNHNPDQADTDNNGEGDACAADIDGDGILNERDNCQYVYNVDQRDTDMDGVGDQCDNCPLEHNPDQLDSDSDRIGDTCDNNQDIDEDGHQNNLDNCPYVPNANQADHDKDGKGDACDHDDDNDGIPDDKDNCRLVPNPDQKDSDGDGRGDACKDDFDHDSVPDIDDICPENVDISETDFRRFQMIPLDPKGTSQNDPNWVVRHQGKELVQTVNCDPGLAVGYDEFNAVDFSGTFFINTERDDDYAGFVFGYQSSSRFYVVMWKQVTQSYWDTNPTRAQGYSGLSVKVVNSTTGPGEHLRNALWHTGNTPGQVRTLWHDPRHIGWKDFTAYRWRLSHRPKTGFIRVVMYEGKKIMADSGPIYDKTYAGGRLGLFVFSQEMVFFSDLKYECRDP
(§1) For initial screening, an ELISA-based screening assay was used in which purified human platelet TSP-1 was incubated with compounds and then incubated with recombinant latent TGF-β1 (purchased from R&D Systems). Activity is measured in a commercially available ELISA which detects only active TGF-β (R &D Systems). Activity in the presence of compounds is compared to activity in TSP-1+latent TGF-β samples without inhibitory compounds (Lu et al. (2016) Am J Pathol 186:678-690).
To specifically assess activity of compounds in liver cell specific assays, two different assays were used. In the first, human hepatic stellate cells were incubated overnight in low serum media to condition the media with secreted latent TGF-β. Purified TSP1 either pre-incubated with compounds or not will be added to cultures and then conditioned media harvested to assess TGF-β biological activity using the R&D Systems ELISA as above. Hepatic stellate cells will be purchased from commercial sources. Although hepatic stellate cells are the primary drivers of liver fibrosis, conditions which drive liver fibrosis can induce hepatocyte TSP-1 expression which can then have paracrine effects on controlling TGF-β activation in hepatic stellate cells. Furthermore, TGF-β can negatively impact hepatocyte regeneration following injury. Therefore, the ability of compounds to block TSP-1 activation of latent TGF-β will also be assessed in cultured primary human hepatocytes following the protocol described for the hepatic stellate cells. Similar approaches have successfully been used to screen compounds which inhibit human myeloma cell derived latent TGF-β activation by TSP-1 (Lu et al. (2016) Am J Pathol 186:678-690).

SMILES	IC50 [µM]
CC(=O)NC(Cc1ccc(CN)cc1)c1nnc(-c2cccc(OC(F)(F)F)c2)s1 (racemic) [Compound 41791]	0.061
CC(=O)N[C@@H](Cc1ccc(CN)cc1)c1nnc(-c2cccc(OC(F)(F)F)c2)s1 (single isomer, unassigned) [Compound 41891]	0.026
CC(=O)NC(Cc1ccc(CN)cc1)c1nnc(-c2ccncc2)s1 (centres unmarked) [Compound 39245, N-(2-(4-(aminomethyl)phenyl)-1-(5-(pyridin-4-yl)-1,3,4-thiadiazol-2-yl)ethyl)acetamide]	0.033
CC(=O)NC(Cc1ccc(N)cc1)c1nnc(-c2cccc(OC(F)(F)F)c2)s1 (centres unmarked) [Compound 39999, N-(2-(4-aminophenyl)-1-(5-(3-(trifluoromethoxy)phenyl)-1,3,4-thiadiazol-2-yl)ethyl)acetamide]	0.015
CC(=O)NC(Cc1ccc(CN)cc1)c1nnc(-c2cccc(OC(F)(F)F)c2)s1 (centres unmarked) [Compound 40000, N-(2-(4-(aminomethyl)phenyl)-1-(5-(3-(trifluoromethoxy)phenyl)-1,3,4-thiadiazol-2-yl)ethyl)acetamide]	0.028
CC(=O)NC(Cc1ccc(CN)cc1)c1nnc(-c2ccc(F)cc2)s1 (centres unmarked) [Compound 40051, N-(2-(4-(aminomethyl)phenyl)-1-(5-(4-fluorophenyl)-1,3,4-thiadiazol-2-yl)ethyl)acetamide]	0.049
CC(=O)NC(Cc1ccc(CN)cc1)c1nnc(-c2cc(C(F)(F)F)cc(C(F)(F)F)c2)s1 (centres unmarked) [Compound 40653, N-(2-(4-(aminomethyl)phenyl)-1-(5-(3,5-bis(trifluoromethyl)phenyl)-1,3,4-thiadiazol-2-yl)ethyl)acetamide]	0.039
COc1cccc(-c2nnc(C(Cc3ccc(CN)cc3)NC(C)=O)s2)c1 (centres unmarked) [Compound 41149, N-(2-(4-(aminomethyl)phenyl)-1-(5-(3-methoxyphenyl)-1,3,4-thiadiazol-2-yl)ethyl)acetamide hydrochloride]	0.183
CC(=O)NC(Cc1ccc(CN)cc1)c1nnc(-c2cccc(C(F)(F)F)c2)s1 (centres unmarked) [Compound 41152, N-(2-(4-(aminomethyl)phenyl)-1-(5-(3-(trifluoromethyl)phenyl)-1,3,4-thiadiazol-2-yl)ethyl)acetamide hydrochloride]	0.009

Other lines, results leading:

IC50 [µM]	SMILES
0.0269	CC(=O)N[C@H](Cc1ccc(CN)cc1)c1nnc(-c2cccc(OC(F)(F)F)c2)s1 (single isomer, unassigned) [Compound 41892]
0.006	COc1cc(-c2nnc(C(Cc3ccc(CN)cc3)NC(C)=O)s2)cc(C(F)(F)F)c1 (centres unmarked) [Compound 42330, N-(2-(4-(aminomethyl)phenyl)-1-(5-(3-methoxy-5-(trifluoromethyl)phenyl)-1,3,4-thiadiazol-2-yl)ethyl)acetamide]
0.03	CC(=O)N(C)C(Cc1ccc(CN)cc1)c1nnc(-c2cccc(OC(F)(F)F)c2)s1 (centres unmarked) [Compound 42335, N-(2-(4-(aminomethyl)phenyl)-1-(5-(3-(trifluoromethoxy)phenyl)-1,3,4-thiadiazol-2-yl)ethyl)-N-methylacetamide Hydrochloride]
0.005	NCc1cccc(CC(NC(=O)C2CCCCC2)c2nnc(-c3cccc(OC(F)(F)F)c3)s2)c1 (centres unmarked) [Compound 42461, N-(2-(3-(aminomethyl)phenyl)-1-(5-(3-(trifluoromethoxy)phenyl)-1,3,4-thiadiazol-2-yl)ethyl)cyclohexanecarboxamide]
0.008	NCc1cccc(CC(NC(=O)C2CC2)c2nnc(-c3cccc(OC(F)(F)F)c3)s2)c1 (centres unmarked) [Compound 42468, N-(2-(3-(aminomethyl)phenyl)-1-(5-(3-(trifluoromethoxy)phenyl)-1,3,4-thiadiazol-2-yl)ethyl)cyclopropanecarboxamide]
0.008	CC(=O)NC(Cc1ccc(CN)cc1)c1nnc(-c2cc(C)cc(OC(F)(F)F)c2)s1 (centres unmarked) [Compound 42470]
0.008	COc1cc(C)cc(-c2nnc(C(Cc3ccc(CN)cc3)NC(C)=O)s2)c1 (centres unmarked) [Compound 42473]

Same assay, conditions: Table II

IC50 [µM]	SMILES
0.013	CC(=O)NC(CCCCN)c1nnc(C2CCCCC2)s1 (centres unmarked) [Compound 39139, N-(5-Amino-1-(5-cyclohexyl-1,3,4-thiadiazol-2-yl)pentyl)acetamide]
0.324	CC(=O)NC(CCCCN)c1nnc(-c2ccc(F)cc2)s1 (centres unmarked) [Compound 39261, N-(5-Amino-1-(5-(4-fluorophenyl)-1,3,4-thiadiazol-2-yl)pentyl)acetamide]

Same assay, conditions: Table II, cells that print μM

IC50 [µM]	SMILES
> 1	CC(=O)NC(CCCCN)c1nnc(-c2ccc(F)cc2F)s1 (centres unmarked) [Compound 39425, N-(5-Amino-1-(5-(2,4-difluorophenyl)-1,3,4-thiadiazol-2-yl)pentyl)acetamide]
> 1	CC(=O)NC(CCCCN)c1nnc(-c2ccncc2)o1 (centres unmarked) [Compound 40074, N-(5-Amino-1-(5-(pyridin-4-yl)-1,3,4-oxadiazol-2-yl)pentyl)acetamide]

These compounds were tested against (Homo sapiens, UniProt P07996) (assay: ELISA based assays of TSP1 activation of latent TGF-β (purified protein components or TSP1-treated cell conditioned media)). Conditions: at 1 pm.
Assay type: biochemical
Design: purchased R&D Systems
Method: Compound 35 was evaluated for its ability to inhibit TGF-β in both ELISA based assays with purified protein components (latent TGFβ and TSP1 or in TSP1-treated cell conditioned media).
Target sequence in this assay (P07996 19-1170): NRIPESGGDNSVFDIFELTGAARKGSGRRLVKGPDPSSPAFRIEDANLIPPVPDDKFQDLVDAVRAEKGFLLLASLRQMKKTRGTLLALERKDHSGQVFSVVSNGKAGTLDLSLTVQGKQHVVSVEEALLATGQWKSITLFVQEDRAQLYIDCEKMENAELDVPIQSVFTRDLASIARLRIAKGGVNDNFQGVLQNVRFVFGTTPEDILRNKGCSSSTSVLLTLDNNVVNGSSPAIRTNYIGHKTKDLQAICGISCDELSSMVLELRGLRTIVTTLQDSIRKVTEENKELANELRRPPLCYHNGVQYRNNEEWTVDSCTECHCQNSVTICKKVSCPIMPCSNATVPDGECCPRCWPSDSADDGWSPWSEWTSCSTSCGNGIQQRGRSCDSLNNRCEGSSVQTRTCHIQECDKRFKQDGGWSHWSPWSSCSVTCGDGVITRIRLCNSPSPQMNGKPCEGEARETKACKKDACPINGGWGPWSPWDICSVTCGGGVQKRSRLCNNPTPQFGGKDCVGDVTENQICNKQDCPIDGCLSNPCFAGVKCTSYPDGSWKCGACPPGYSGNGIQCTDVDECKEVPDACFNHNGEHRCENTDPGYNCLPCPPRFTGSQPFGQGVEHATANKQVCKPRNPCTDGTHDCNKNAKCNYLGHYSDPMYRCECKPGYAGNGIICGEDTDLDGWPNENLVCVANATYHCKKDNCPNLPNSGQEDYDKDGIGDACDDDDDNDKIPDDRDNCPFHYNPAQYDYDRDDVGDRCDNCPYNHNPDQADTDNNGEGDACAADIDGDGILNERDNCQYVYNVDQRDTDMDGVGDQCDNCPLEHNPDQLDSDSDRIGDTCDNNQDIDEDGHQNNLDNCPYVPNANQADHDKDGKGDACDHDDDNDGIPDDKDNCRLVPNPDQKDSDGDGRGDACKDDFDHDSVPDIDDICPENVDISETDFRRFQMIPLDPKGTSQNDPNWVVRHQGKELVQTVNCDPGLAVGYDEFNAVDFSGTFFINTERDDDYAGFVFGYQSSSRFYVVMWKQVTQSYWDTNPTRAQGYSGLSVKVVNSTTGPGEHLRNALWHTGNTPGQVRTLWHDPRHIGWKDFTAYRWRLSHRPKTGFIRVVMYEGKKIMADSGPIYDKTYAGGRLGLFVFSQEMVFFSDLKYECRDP
as §1

inhibition of TGF-β [%]	SMILES
15	CC(=O)N[C@@H](CCCCN)c1nnc(-c2ccccc2)s1 [Compound 35, (S)—N-(5-amino-1-(5-phenyl-1,3,4-thiadiazol-2-yl)pentyl)acetamide]

Same assay, conditions: at 50 pm

inhibition of TGF-β [%]	SMILES
67	CC(=O)N[C@@H](CCCCN)c1nnc(-c2ccccc2)s1 [Compound 35, (S)—N-(5-amino-1-(5-phenyl-1,3,4-thiadiazol-2-yl)pentyl)acetamide]

Same assay, conditions: at 100 pm

inhibition of TGF-β [%]	SMILES
67	CC(=O)N[C@@H](CCCCN)c1nnc(-c2ccccc2)s1 [Compound 35, (S)—N-(5-amino-1-(5-phenyl-1,3,4-thiadiazol-2-yl)pentyl)acetamide]
